Measured values: ChEMBL document CHEMBL1944503, “Synthesis and biological evaluation of conjugates of deoxypodophyllotoxin and 5-FU as inducer of caspase-3 and -7” (Eur J Med Chem, 2012)
Calls of active or inactive are those of the source. No cut-off for these calls is given here.

Key:
SiHa = assay: Cytotoxicity against human SiHa cells after 48 hrs by MTT assay; type: functional, cell-based
HeLa = assay: Cytotoxicity against human HeLa cells after 48 hrs by CCK-8 assay; type: functional, cell-based
HL-60 = assay: Cytotoxicity against human HL60 cells after 48 hrs by CCK-8 assay; type: functional, cell-based; details: HL-60, 48 h
A549 [1] = assay: cells; details: Homo sapiens, A549, 48 h
Description: Cytotoxicity against human A549 cells after 48 hrs by MTT assay

A549 [2] = assay: Induction of apoptosis in human A549 cells assessed as cell detachment at 0.5 uM after 24 hrs by Hoechst 33258 staining based fluorescence microscopy; type: functional
A549 [3] = assay: Cell cycle arrest in human A549 cells assessed as accumulation at G1 phase at 0.5 uM by propidium iodide staining based flow cytometry analysis; type: functional; details: TDE = time-dependent effect
A549 [4] = assay: Cell cycle arrest in human A549 cells assessed as accumulation at G1 phase at 0.5 uM after 24 hrs by propidium iodide staining based flow cytometry analysis (reference value: 54.1%); type: functional
A549 [5] = assay: Cell cycle arrest in human A549 cells assessed as accumulation at S phase at 0.5 uM after 12 hrs by propidium iodide staining based flow cytometry analysis (reference value: 30.3%); type: functional
A549 [6] = assay: Induction of apoptosis in human A549 cells assessed as nuclear fragmentation at 0.5 uM after 24 hrs by Hoechst 33258 staining based fluorescence microscopy; type: functional, cell-based
A549 [7] = assay: Cell cycle arrest in human A549 cells assessed as accumulation at G2/M phase at 0.5 uM after 12 hrs by propidium iodide staining based flow cytometry analysis (reference value: 15.6%); type: functional
A549 [8] = assay: Cell cycle arrest in human A549 cells assessed as accumulation at G2/M phase at 0.5 uM after 24 hrs by propidium iodide staining based flow cytometry analysis (reference value: 15.6%); type: functional
A549 [9] = assay: Induction of apoptosis in human A549 cells assessed as increase in caspase-7 cleavage at 0.5 uM by Western blot analysis; type: functional, cell-based; details: TDE = time-dependent effect
A549 [10] = assay: Cell cycle arrest in human A549 cells assessed as accumulation at G1 phase at 0.5 uM after 12 hrs by propidium iodide staining based flow cytometry analysis (reference value: 54.1%); type: functional
A549 [11] = assay: Cell cycle arrest in human A549 cells assessed as accumulation at S phase at 0.5 uM after 24 hrs by propidium iodide staining based flow cytometry analysis (reference value: 30.3%); type: functional
A549 [12] = assay: Induction of apoptosis in human A549 cells assessed as increase in caspase-3 cleavage at 0.5 uM by Western blot analysis; type: functional, cell-based; details: TDE = time-dependent effect
A549 [13] = assay: Induction of apoptosis in human A549 cells assessed as nuclear condensation at 0.5 uM after 24 hrs by Hoechst 33258 staining based fluorescence microscopy; type: functional, cell-based
A549 [14] = assay: Induction of apoptosis in human A549 cells assessed as membrane blebbing at 0.5 uM after 24 hrs by Hoechst 33258 staining based fluorescence microscopy; type: functional, cell-based
A549 [15] = assay: Induction of apoptosis in human A549 cells assessed as cell shrinkage at 0.5 uM after 24 hrs by Hoechst 33258 staining based fluorescence microscopy; type: functional
A549 [16] = assay: Cell cycle arrest in human A549 cells assessed as accumulation at G2/M phase at 0.5 uM by propidium iodide staining based flow cytometry analysis; type: functional; details: TDE = time-dependent effect

Structure (SMILES) | IC50 (SiHa) [nM] | IC50 (HeLa) [nM] | IC50 (HL-60) [nM] | IC50 (A549 [1]) [nM] | further results
COc1cc([C@@H]2c3cc4c(cc3[C@@H](O[C@@H]3O[C@@H]5CO[C@@H](C)O[C@H]5[C@H](O)[C@H]3O)[C@H]3COC(=O)[C@H]23)OCO4)cc(OC)c1O [ETOPOSIDE] | 2760 | 40400 |  |  | 
COc1cc([C@@H]2c3cc4c(cc3C[C@H]3COC(=O)[C@@H]32)OCO4)cc(OC)c1OC(=O)[C@H](C)NC(=O)Cn1cc(F)c(=O)[nH]c1=O | 600 | 200 | 190 | 1400 | 
COc1cc([C@@H]2c3cc4c(cc3C[C@H]3COC(=O)[C@@H]32)OCO4)cc(OC)c1OC(=O)Cn1cc(F)c(=O)[nH]c1=O | 110 | 180 | 35 | 660 | 
COc1cc([C@@H]2c3cc4c(cc3C[C@H]3COC(=O)[C@@H]32)OCO4)cc(OC)c1O [4'-DEMETHYLDEOXYPODOPHYLLOTOXIN] | 43000 | 53300 |  |  | 
COc1cc([C@@H]2c3cc4c(cc3C[C@H]3COC(=O)[C@@H]32)OCO4)cc(OC)c1OC(=O)[C@H](CCSC)NC(=O)Cn1cc(F)c(=O)[nH]c1=O | 360 | 780 | 230 | 830 | 
COc1cc([C@@H]2c3cc4c(cc3C[C@H]3COC(=O)[C@@H]32)OCO4)cc(OC)c1OC(=O)[C@H](Cc1ccccc1)NC(=O)Cn1cc(F)c(=O)[nH]c1=O | 760 | 830 | 23 | 560 | Activity (A549 [2]): Active; Activity (A549 [3]): tde; Activity (A549 [4]): 3.94%; Activity (A549 [5]): 42.6%; Activity (A549 [6]): Active; Activity (A549 [7]): 52.6%; Activity (A549 [8]): 64.8%; Activity (A549 [9]): tde; Activity (A549 [10]): 4.84%; Activity (A549 [11]): 31.3%; Activity (A549 [12]): tde; Activity (A549 [13]): Active; Activity (A549 [14]): Active; Activity (A549 [15]): Active; Activity (A549 [16]): tde
COc1cc([C@@H]2c3cc4c(cc3[C@H](O)[C@H]3COC(=O)[C@H]23)OCO4)cc(OC)c1OC |  |  |  |  | Activity (A549 [2]): Active; Activity (A549 [6]): Active; Activity (A549 [13]): Active; Activity (A549 [14]): Active; Activity (A549 [15]): Active
COc1cc([C@@H]2c3cc4c(cc3C[C@H]3COC(=O)[C@@H]32)OCO4)cc(OC)c1OC [DESOXYPODOPHYLLOTOXIN] | 1980 | 6010 |  |  | 
COc1cc([C@@H]2c3cc4c(cc3C[C@H]3COC(=O)[C@@H]32)OCO4)cc(OC)c1OC(=O)[C@@H](NC(=O)Cn1cc(F)c(=O)[nH]c1=O)C(C)C | 1650 | 1230 | 140 | 360 | 
COc1cc([C@@H]2c3cc4c(cc3C[C@H]3COC(=O)[C@@H]32)OCO4)cc(OC)c1OC(=O)[C@H](CC(C)C)NC(=O)Cn1cc(F)c(=O)[nH]c1=O | 350 | 430 | 63 | 1070 | 
COc1cc([C@@H]2c3cc4c(cc3C[C@H]3COC(=O)[C@@H]32)OCO4)cc(OC)c1OC(=O)[C@@H](CCSC)NC(=O)Cn1cc(F)c(=O)[nH]c1=O | 1510 | 1970 | 940 | 2600 | 
O=c1[nH]cc(F)c(=O)[nH]1 [FLUOROURACIL] | 218000 | 82200 | 68300 | 54800 | 
